# Experimental data from ChEMBL document CHEMBL5724914, “Linking interpersonal differences in gut microbiota composition and drug biotransformation activity” (2024).
# Legend:
# [1] = The drug is tested on WLS-027 corresponding to human gut metagenome with ENA study accession number: PRJEB37062 and ENA sample accession number: ERS12561744 for biotransformation under anaerobic condition. The drug concentrations were measured over 9 timepoints collected between 0 and 24 hours of incubation by liquid-chromatography-coupled mass spectrometry (LC–MS); details: 2 µM
# [2] = The drug is tested on WLS-370 corresponding to human gut metagenome with ENA study accession number: PRJEB37062 and ENA sample accession number: ERS12561793 for biotransformation under anaerobic condition. The drug concentrations were measured over 9 timepoints collected between 0 and 24 hours of incubation by liquid-chromatography-coupled mass spectrometry (LC–MS); details: 2 µM
# [3] = The drug is tested on WLS-082 corresponding to human gut metagenome with ENA study accession number: PRJEB37062 and ENA sample accession number: ERS12561751 for biotransformation under anaerobic condition. The drug concentrations were measured over 9 timepoints collected between 0 and 24 hours of incubation by liquid-chromatography-coupled mass spectrometry (LC–MS); details: 2 µM
# [4] = The drug is tested on WLS-010 corresponding to human gut metagenome with ENA study accession number: PRJEB37062 and ENA sample accession number: ERS12561743 for biotransformation under anaerobic condition. The drug concentrations were measured over 9 timepoints collected between 0 and 24 hours of incubation by liquid-chromatography-coupled mass spectrometry (LC–MS); details: 2 µM
# [5] = The drug is tested on Z-028 corresponding to mouse gut metagenome with ENA study accession number: PRJEB37062 and ENA sample accession number: ERS12561827 for biotransformation under anaerobic condition. The drug concentrations were measured over 9 timepoints collected between 0 and 24 hours of incubation by liquid-chromatography-coupled mass spectrometry (LC–MS); details: 2 µM
# [6] = The drug is tested on Z-026 corresponding to metagenome with ENA study accession number: PRJEB37062 and ENA sample accession number: ERS12561825 for biotransformation under anaerobic condition. The drug concentrations were measured over 9 timepoints collected between 0 and 24 hours of incubation by liquid-chromatography-coupled mass spectrometry (LC–MS); details: 2 µM
# [7] = The drug is tested on Z-021 corresponding to metagenome with ENA study accession number: PRJEB37062 and ENA sample accession number: ERS12561820 for biotransformation under anaerobic condition. The drug concentrations were measured over 9 timepoints collected between 0 and 24 hours of incubation by liquid-chromatography-coupled mass spectrometry (LC–MS); details: 2 µM
# [8] = human gut metagenome, 24 h, 2 µM
# [9] = human gut metagenome, 24 h, 2 µM; remark: listed apart in the source
# [10] = The drug is tested on Z-029 corresponding to rat gut metagenome with ENA study accession number: PRJEB37062 and ENA sample accession number: ERS12561828 for biotransformation under anaerobic condition. The drug concentrations were measured over 9 timepoints collected between 0 and 24 hours of incubation by liquid-chromatography-coupled mass spectrometry (LC–MS); details: 2 µM
# [11] = The drug is tested on Z-020 corresponding to rabbit gut metagenome with ENA study accession number: PRJEB37062 and ENA sample accession number: ERS12561819 for biotransformation under anaerobic condition. The drug concentrations were measured over 9 timepoints collected between 0 and 24 hours of incubation by liquid-chromatography-coupled mass spectrometry (LC–MS); details: 2 µM
# [12] = human gut metagenome, 24 h, 2 µM; remark: listed apart in the source
# [13] = The drug is tested on Z-002 corresponding to rabbit gut metagenome with ENA study accession number: PRJEB37062 and ENA sample accession number: ERS12561802 for biotransformation under anaerobic condition. The drug concentrations were measured over 9 timepoints collected between 0 and 24 hours of incubation by liquid-chromatography-coupled mass spectrometry (LC–MS); details: 2 µM
# [14] = human gut metagenome, 24 h, 2 µM; remark: listed apart in the source
# [15] = human gut metagenome, 24 h, 2 µM; remark: listed apart in the source
# [16] = The drug is tested on Z-013 corresponding to rabbit gut metagenome with ENA study accession number: PRJEB37062 and ENA sample accession number: ERS12561813 for biotransformation under anaerobic condition. The drug concentrations were measured over 9 timepoints collected between 0 and 24 hours of incubation by liquid-chromatography-coupled mass spectrometry (LC–MS); details: 2 µM
# [17] = human gut metagenome, 24 h, 2 µM; remark: listed apart in the source
# [18] = The drug is tested on WLS-170 corresponding to human gut metagenome with ENA study accession number: PRJEB37062 and ENA sample accession number: ERS12561762 for biotransformation under anaerobic condition. The drug concentrations were measured over 9 timepoints collected between 0 and 24 hours of incubation by liquid-chromatography-coupled mass spectrometry (LC–MS); details: 2 µM
# [19] = human gut metagenome, 24 h, 2 µM; remark: listed apart in the source
# [20] = human gut metagenome, 24 h, 2 µM; remark: listed apart in the source
# Note: call rule not given here.
Structure (SMILES),Bacterial Biotransformation [1],Bacterial Biotransformation [2],Bacterial Biotransformation [3],Bacterial Biotransformation [4],Bacterial Biotransformation [5],Bacterial Biotransformation [6],Bacterial Biotransformation [7],Bacterial Biotransformation [8],Bacterial Biotransformation [9],Bacterial Biotransformation [10],Bacterial Biotransformation [11],Bacterial Biotransformation [12],Bacterial Biotransformation [13],Bacterial Biotransformation [14],Bacterial Biotransformation [15],Bacterial Biotransformation [16],Bacterial Biotransformation [17],Bacterial Biotransformation [18],Bacterial Biotransformation [19],Bacterial Biotransformation [20]
COc1ccc(/C=C/C(=O)Nc2ccccc2C(=O)O)cc1OC,Compound metabolized,Compound NOT metabolized,Compound metabolized,Compound metabolized,Compound NOT metabolized,Compound metabolized,Compound metabolized,Compound NOT metabolized,Compound metabolized,Compound NOT metabolized,Compound metabolized,Compound NOT metabolized,Compound metabolized,Compound NOT metabolized,Compound NOT metabolized,Compound metabolized,Compound NOT metabolized,Compound NOT metabolized,Compound NOT metabolized,Compound metabolized
O=C(O)c1cc(/N=N/c2ccc(S(=O)(=O)Nc3ccccn3)cc2)ccc1O [SULFASALAZINE],Compound metabolized,Compound metabolized,Compound metabolized,Compound metabolized,Compound metabolized,Compound metabolized,Compound metabolized,Compound metabolized,Compound metabolized,Compound metabolized,Compound metabolized,Compound metabolized,Compound metabolized,Compound metabolized,Compound metabolized,Compound metabolized,Compound metabolized,Compound metabolized,Compound metabolized,Compound metabolized
CC(C)NCC(O)COc1ccc(CC(N)=O)cc1 (stereo not given) [ATENOLOL],Compound NOT metabolized,Compound NOT metabolized,Compound NOT metabolized,Compound NOT metabolized,Compound NOT metabolized,Compound NOT metabolized,Compound NOT metabolized,Compound NOT metabolized,Compound NOT metabolized,Compound NOT metabolized,Compound NOT metabolized,Compound metabolized,Compound NOT metabolized,Compound NOT metabolized,Compound NOT metabolized,Compound NOT metabolized,Compound NOT metabolized,Compound metabolized,Compound metabolized,Compound metabolized
C[C@@H](c1ncncc1F)[C@](O)(Cn1cncn1)c1ccc(F)cc1F [VORICONAZOLE],Compound metabolized,Compound metabolized,Compound metabolized,Compound metabolized,Compound NOT metabolized,Compound NOT metabolized,Compound NOT metabolized,Compound metabolized,Compound metabolized,Compound metabolized,Compound metabolized,Compound metabolized,Compound metabolized,Compound metabolized,Compound metabolized,Compound NOT metabolized,Compound metabolized,Compound metabolized,Compound metabolized,Compound metabolized
CC(=O)OCC(=O)[C@@]1(OC(C)=O)[C@@H](C)C[C@H]2[C@@H]3C[C@H](F)C4=CC(=O)C=C[C@]4(C)[C@@]3(F)[C@@H](O)C[C@@]21C [DIFLORASONE DIACETATE],Compound metabolized,Compound metabolized,Compound metabolized,Compound metabolized,Compound metabolized,Compound NOT metabolized,Compound metabolized,Compound metabolized,Compound metabolized,Compound NOT metabolized,Compound metabolized,Compound metabolized,Compound metabolized,Compound metabolized,Compound metabolized,Compound metabolized,Compound metabolized,Compound metabolized,Compound metabolized,Compound metabolized
